Laboratory results from PMC3551756, “HIV-1 Fusion Is Blocked through Binding of GB Virus C E2D Peptides to the HIV-1 gp41 Disulfide Loop” (PLoS ONE, 2013).

What was measured:
[1] = biological target: E2_340-Fc / HIV-1 gp41MN interaction (Human immunodeficiency virus type 1 group M subtype B, UniProt P05877); format: binding; settings: ELISA, immobilized gp41MN, E2_340-Fc constant (5 µg/ml), increasing peptide; three independent experiments each in duplicate
Method: Flat-bottom, 96-well Microtest ELISA plates (Sarstedt, Germany) were coated overnight at 4°C with recombinant HIV-1 gp120 (0.5 µg/ml), gp41 (0.22 µg/ml) proteins, or with streptavidin (4 µg/ml) in coating buffer (0.1 M NaHCO3, 0.1 M Na2CO3, pH 9.87). Nonspecific binding was blocked (blocking buffer: 1% BSA, 0.1% Tween-20 in phosphate buffer, pH 7.2) for 1 h at room temperature, followed by washing steps (wash buffer: 0.1% Tween in phosphate buffer, pH 7.2). […] All plates were then incubated with recombinant E2_340-Fc or Fc protein in serial dilutions in sample buffer (phosphate buffer, pH 7.2) for 3 hr at room temperature. To perform the competitive ELISAs, the recombinant E2_340-Fc protein was adjusted at 5 µg/ml and the monoclonal gp41 antibodies (246-D, F240, T32, D50, 2F5, 4E10, Chessie 8 [all: NIH AIDS Research and Reference Reagent Program], and 5F3 [Polymun, Austria]) at 100 µM. After washing procedure, the plates were incubated for 1 h with polyclonal rabbit anti-human IgG peroxidase antibody (Dako, Germany) 1∶6000 in sample buffer and washed. Plates were developed with TMB peroxidase substrate solution (KPL, USA), or with OPD/H2O2 solution in the dark. Absorbances (ODs) were read at 450 or 492 nm, respectively, using a multi-channel photometer (ELISA-Reader AxSYM, Abbott Laboratory, USA).
Competitive binding of E2 and gp120 peptides (N35, N35s) with recombinant E2_340-Fc protein to immobilized recombinant gp41MN. Simultaneously to E2_340-Fc incubation peptides of E2 or gp120 were added with increasing amounts.

[2] = tested on: HIV-1 Env (NL4-3 gp160, X4env) on 293T cells; test: HIV-1 gp160 (X4env) binding of FITC-labeled E2 peptides, flow cytometry; settings: FITC-labeled peptides 1 µM; for binding to HIV-1 Env-expressing cells: sCD4 pretreated, 1 h 37°C, X4env- vs vector-transfected 293T cells, three independent experiments each in duplicate; for background attachment to mock- or vector-transfected cells: mock- or vector-transfected 293T cells
Method: 293T cells were transiently transfected with an HIV-1 Env expression vector, coding for the CXCR4-tropic NL4-3 gp160 precursor (X4env) for surface expression of gp120-gp41 Env trimers or empty plasmid as control. After 2 days of cultivation, cells were incubated with 1 µg sCD4 and 1 µM FITC-conjugated E2 peptides for 1 h at 37°C respectively. Subsequently, cells were washed, resuspended in PBS, and analyzed by flow cytometry using a BD™ LSR II flow cytometer (Becton Dickinson Biosciences, Germany). Flow cytometer data were collected with BD FACSDiva™ and analyzed with FCS Express V3. In parallel, gp160 expression was determined by staining with HIV-1 gp120 mAbs (2G12 and 17b) and an anti-human IgG-FITC pAb (Dako, Germany).
Previously, we have shown that the target of the HIV-1-inhibitory E2 peptides is most likely located on the HIV-1 particle, rather than on the cell. The surface of the HIV-1 particle consists of a lipid bilayer with incorporated host cell proteins and a limited number of functional envelope (Env) trimers (on average 14±7). Therefore, we tested whether the HIV-1-inhibitory E2 peptides interact with trimeric HIV-1 Env proteins expressed on the surface of transfected cells. For this purpose, 293T cells were transiently transfected with an HIV-1 Env expression vector, coding for the gp160 precursor of the CXCR4-tropic NL4-3 envelope (X4env). Binding of FITC-labeled E2 peptides was monitored by flow cytometry.
Figure 4 Recombinant E2_340-Fc protein and E2-derived peptides bind HIV-1 gp41. (A) 293T cells expressing NL4-3 envelope (X4env) or empty plasmid as control were incubated with sCD4 and FITC-conjugated E2 peptides, respectively. Peptide binding was analyzed by flow cytometry. Percentages illustrate the increase of cell binding to X4env-transfected cells. The increase is normalized to the background binding of E2 peptides to mock-transfected cells by calculating the RTCN value. […] (C) E2 peptides with increasing amounts were added to recombinant E2_340-Fc protein (at constant concentration) and then transferred to immobilized recombinant gp41MN.

F240 = test: Unspecific binding of E2 peptides to antibody F240; settings: data not shown
gp41MN = test: Competitive ELISA, E2 peptides versus gp41 mAbs on immobilized gp41MN; format: binding, HIV-1; settings: increasing peptide, three independent experiments each in duplicate; for inhibition of F240 binding to gp41: mAb F240 (disulfide loop); for inhibition of F240 binding to gp41 / inhibition of T32 binding to gp41: immobilized gp41MN; for inhibition of T32 binding to gp41: mAb T32 (disulfide loop); for inhibition of gp41 binding of 246-D, D50, 5F3, 2F5, 4E10 and Chessie 8: mAbs other than F240 and T32, immobilized gp41MN
Method: Flat-bottom, 96-well Microtest ELISA plates (Sarstedt, Germany) were coated overnight at 4°C with recombinant HIV-1 gp120 (0.5 µg/ml), gp41 (0.22 µg/ml) proteins, or with streptavidin (4 µg/ml) in coating buffer (0.1 M NaHCO3, 0.1 M Na2CO3, pH 9.87). Nonspecific binding was blocked (blocking buffer: 1% BSA, 0.1% Tween-20 in phosphate buffer, pH 7.2) for 1 h at room temperature, followed by washing steps (wash buffer: 0.1% Tween in phosphate buffer, pH 7.2). Streptavidin-coated plates were then incubated with gp41 disulfide loop peptides (Loop36ox or Loop36s; 2.5 µM). All plates were then incubated with recombinant E2_340-Fc or Fc protein in serial dilutions in sample buffer (phosphate buffer, pH 7.2) for 3 hr at room temperature. To perform the competitive ELISAs, the recombinant E2_340-Fc protein was adjusted at 5 µg/ml and the monoclonal gp41 antibodies (246-D, F240, T32, D50, 2F5, 4E10, Chessie 8 [all: NIH AIDS Research and Reference Reagent Program], and 5F3 [Polymun, Austria]) at […]. After washing procedure, the plates were incubated for 1 h with polyclonal rabbit anti-human IgG peroxidase antibody (Dako, Germany) 1∶6000 in sample buffer and washed. Plates were developed with TMB peroxidase substrate solution (KPL, USA), or with OPD/H2O2 solution in the dark. Absorbances (ODs) were read at 450 or 492 nm, respectively, using a multi-channel photometer (ELISA-Reader AxSYM, Abbott Laboratory, USA).
(A) Illustration of gp41 variants (strains IIIB, MN) and peptides (N36, C34) used in ELISA as well as the binding epitopes of different monoclonal gp41 antibodies. Gp41 consists of the N-terminal fusion peptide (FP), the N- and C-heptad repeats (NHR, CHR) that are connected by the disulfide loop region (C-C loop), the membrane proximal external region (MPER), the α-helical transmembrane-spanning domain (TM), and the cytoplasmic tail (CP). […] Each sample was tested in triplicate. […] (C) Competitive binding of E2 peptides and different gp41 targeting mAbs to immobilized recombinant gp41MN. Simultaneously to mAb incubation E2 peptides were added with increasing amounts. […] The graphs show average values of three independent experiments each performed in duplicate.
Finally, we performed a direct binding assay with biotin-tagged 36mer gp41 disulfide loop peptides (residues from 588 to 623 according to HIV gp160HxB2) and GBV-C E2_340-Fc. We immobilized via streptavidin an oxidized (closed loop) or a linear variant of the disulfide loop, in which the cysteine residues were replaced with serine (Table S1) onto plates and the binding of graded concentrations of GBV-C E2_340-Fc was monitored with HRP-anti-human antibodies.

Sequence of E2_340-Fc / HIV-1 gp41MN interaction (P05877 514-856): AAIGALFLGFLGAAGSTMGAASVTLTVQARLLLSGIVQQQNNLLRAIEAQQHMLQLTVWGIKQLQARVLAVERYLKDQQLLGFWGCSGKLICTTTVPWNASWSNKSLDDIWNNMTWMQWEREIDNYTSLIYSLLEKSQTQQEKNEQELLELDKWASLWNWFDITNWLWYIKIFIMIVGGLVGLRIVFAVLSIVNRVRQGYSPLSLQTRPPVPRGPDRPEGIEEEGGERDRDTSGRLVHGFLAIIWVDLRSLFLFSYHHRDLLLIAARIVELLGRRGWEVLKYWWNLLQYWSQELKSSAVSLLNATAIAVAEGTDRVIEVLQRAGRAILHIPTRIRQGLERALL

Compound: CC(=O)N[C@@H](CC(C)C)C(=O)N[C@@H](CS)C(=O)N[C@@H](CC(=O)O)C(=O)N[C@@H](CS)C(=O)N1CCC[C@H]1C(=O)N[C@@H](CC(N)=O)C(=O)NCC(=O)N1CCC[C@H]1C(=O)N[C@@H](Cc1c[nH]c2ccccc12)C(=O)N[C@H](C(=O)N[C@@H](Cc1c[nH]c2ccccc12)C(=O)N[C@H](C(=O)N1CCC[C@H]1C(=O)N[C@@H](C)C(=O)N[C@@H](Cc1ccccc1)C(=O)N[C@@H](CS)C(=O)N[C@@H](CCC(N)=O)C(=O)N[C@@H](C)C(=O)N[C@H](C(=O)NCC(=O)O)C(C)C)C(C)C)C(C)C [P6-2]
- competition with E2_340-Fc for gp41 binding [1]: abrogated the protein-protein interaction between HIV-1 gp41 and GBV-C E2 in a dose-dependent manner
- binding to HIV-1 Env-expressing cells [2]: significant increase in the binding
- background attachment to mock- or vector-transfected cells [2]: background attachment
- unspecific binding to antibody F240 (F240): No unspecific binding
- inhibition of F240 binding to gp41 (gp41MN): inhibited in a dose-dependent manner
- inhibition of T32 binding to gp41 (gp41MN): inhibited in a dose-dependent manner
- inhibition of gp41 binding of 246-D, D50, 5F3, 2F5, 4E10 and Chessie 8 (gp41MN): Of the eight antibodies, only the gp41 interaction of F240 and T32 was inhibited

Compound: Ac-WDRGNVTLLCDCPNGPWVWV [P4-7, 20 mer peptide presenting amino acids 37 to 56 of the GBV-C E2 protein]
- competition with E2_340-Fc for gp41 binding [1]: abrogated the protein-protein interaction between HIV-1 gp41 and GBV-C E2 in a dose-dependent manner
- binding to HIV-1 Env-expressing cells [2]: significant increase in the binding
- background attachment to mock- or vector-transfected cells [2]: background attachment
- unspecific binding to antibody F240 (F240): No unspecific binding
- inhibition of F240 binding to gp41 (gp41MN): inhibited in a dose-dependent manner
- inhibition of T32 binding to gp41 (gp41MN): inhibited in a dose-dependent manner
- inhibition of gp41 binding of 246-D, D50, 5F3, 2F5, 4E10 and Chessie 8 (gp41MN): Of the eight antibodies, only the gp41 interaction of F240 and T32 was inhibited
